Holding throughout (design): recommended concentration 1 uM
Assay [1] addresses T1, Chromobox protein homolog 2 (Homo sapiens, UniProt Q14781).
T1 sequence (Q14781 whole entry): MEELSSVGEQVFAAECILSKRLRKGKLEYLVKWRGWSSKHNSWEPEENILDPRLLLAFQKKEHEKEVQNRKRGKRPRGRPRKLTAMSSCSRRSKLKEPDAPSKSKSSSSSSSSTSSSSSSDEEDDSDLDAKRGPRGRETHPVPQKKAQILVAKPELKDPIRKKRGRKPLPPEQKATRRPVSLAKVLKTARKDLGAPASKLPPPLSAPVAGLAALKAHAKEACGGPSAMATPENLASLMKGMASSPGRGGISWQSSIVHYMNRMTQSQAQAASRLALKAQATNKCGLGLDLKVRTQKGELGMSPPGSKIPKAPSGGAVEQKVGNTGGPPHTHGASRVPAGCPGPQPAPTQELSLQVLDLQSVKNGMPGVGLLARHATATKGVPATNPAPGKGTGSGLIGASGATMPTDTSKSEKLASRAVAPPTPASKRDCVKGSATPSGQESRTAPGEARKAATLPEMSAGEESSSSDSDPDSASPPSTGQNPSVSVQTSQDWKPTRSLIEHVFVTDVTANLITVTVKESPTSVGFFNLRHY
As to the kind of experiment: Selectivity interaction (SPR) EUB0001090a CBX2.

Assay [2] concerns the target E3 SUMO-protein ligase CBX4 (Homo sapiens, UniProt O00257). The assay can be described thus: Selectivity interaction (SPR) EUB0001090a CBX4.
Assay [3] concerns the target Chromobox protein homolog 6 (Homo sapiens, UniProt O95503). As to the kind of experiment: Selectivity interaction (SPR) EUB0001090a CBX6.
For assay [4], the target named is Chromobox protein homolog 8 (Homo sapiens, UniProt Q9HC52). As to the kind of experiment: Selectivity interaction (SPR) EUB0001090a CBX8.
Chromobox protein homolog 8, sequence (Q9HC52 whole entry): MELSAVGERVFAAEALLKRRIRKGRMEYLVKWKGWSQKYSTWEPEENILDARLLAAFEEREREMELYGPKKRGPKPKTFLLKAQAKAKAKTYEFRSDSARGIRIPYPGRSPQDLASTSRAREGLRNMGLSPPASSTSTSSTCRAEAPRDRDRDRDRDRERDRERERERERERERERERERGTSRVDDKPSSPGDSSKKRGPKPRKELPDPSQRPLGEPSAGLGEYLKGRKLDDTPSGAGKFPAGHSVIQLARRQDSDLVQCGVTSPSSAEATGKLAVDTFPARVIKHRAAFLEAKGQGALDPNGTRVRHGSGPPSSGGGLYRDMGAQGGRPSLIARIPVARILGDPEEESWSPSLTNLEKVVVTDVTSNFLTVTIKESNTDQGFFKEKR
For assay [5], the target named is Chromodomain Y-like protein 2 (Homo sapiens, UniProt Q8N8U2). The assay can be described thus: Selectivity interaction (SPR) EUB0001090a CDYL2.
Chromodomain Y-like protein 2, sequence (Q8N8U2 whole entry): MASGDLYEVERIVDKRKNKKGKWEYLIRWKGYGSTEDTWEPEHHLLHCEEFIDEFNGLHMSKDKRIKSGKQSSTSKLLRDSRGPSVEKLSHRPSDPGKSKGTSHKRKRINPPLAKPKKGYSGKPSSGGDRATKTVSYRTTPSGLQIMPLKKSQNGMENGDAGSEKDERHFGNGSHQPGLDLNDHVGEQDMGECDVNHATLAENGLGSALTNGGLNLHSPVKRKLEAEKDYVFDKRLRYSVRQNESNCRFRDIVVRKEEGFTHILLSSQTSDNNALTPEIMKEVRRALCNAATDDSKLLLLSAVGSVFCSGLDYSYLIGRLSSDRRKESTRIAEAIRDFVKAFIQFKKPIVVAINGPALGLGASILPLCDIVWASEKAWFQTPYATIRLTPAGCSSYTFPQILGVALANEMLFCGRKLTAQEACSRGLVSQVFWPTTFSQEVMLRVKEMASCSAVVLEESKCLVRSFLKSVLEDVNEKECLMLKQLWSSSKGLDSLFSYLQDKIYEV
For assay [6], the target named is T2, Histone-lysine N-methyltransferase 2A (Homo sapiens, UniProt Q03164). As to the kind of experiment: (§1) Selectivity interaction (Enzymatic assay) EUB0002166aAD MLL.
T2 sequence (Q03164 1-2718 limits assumed): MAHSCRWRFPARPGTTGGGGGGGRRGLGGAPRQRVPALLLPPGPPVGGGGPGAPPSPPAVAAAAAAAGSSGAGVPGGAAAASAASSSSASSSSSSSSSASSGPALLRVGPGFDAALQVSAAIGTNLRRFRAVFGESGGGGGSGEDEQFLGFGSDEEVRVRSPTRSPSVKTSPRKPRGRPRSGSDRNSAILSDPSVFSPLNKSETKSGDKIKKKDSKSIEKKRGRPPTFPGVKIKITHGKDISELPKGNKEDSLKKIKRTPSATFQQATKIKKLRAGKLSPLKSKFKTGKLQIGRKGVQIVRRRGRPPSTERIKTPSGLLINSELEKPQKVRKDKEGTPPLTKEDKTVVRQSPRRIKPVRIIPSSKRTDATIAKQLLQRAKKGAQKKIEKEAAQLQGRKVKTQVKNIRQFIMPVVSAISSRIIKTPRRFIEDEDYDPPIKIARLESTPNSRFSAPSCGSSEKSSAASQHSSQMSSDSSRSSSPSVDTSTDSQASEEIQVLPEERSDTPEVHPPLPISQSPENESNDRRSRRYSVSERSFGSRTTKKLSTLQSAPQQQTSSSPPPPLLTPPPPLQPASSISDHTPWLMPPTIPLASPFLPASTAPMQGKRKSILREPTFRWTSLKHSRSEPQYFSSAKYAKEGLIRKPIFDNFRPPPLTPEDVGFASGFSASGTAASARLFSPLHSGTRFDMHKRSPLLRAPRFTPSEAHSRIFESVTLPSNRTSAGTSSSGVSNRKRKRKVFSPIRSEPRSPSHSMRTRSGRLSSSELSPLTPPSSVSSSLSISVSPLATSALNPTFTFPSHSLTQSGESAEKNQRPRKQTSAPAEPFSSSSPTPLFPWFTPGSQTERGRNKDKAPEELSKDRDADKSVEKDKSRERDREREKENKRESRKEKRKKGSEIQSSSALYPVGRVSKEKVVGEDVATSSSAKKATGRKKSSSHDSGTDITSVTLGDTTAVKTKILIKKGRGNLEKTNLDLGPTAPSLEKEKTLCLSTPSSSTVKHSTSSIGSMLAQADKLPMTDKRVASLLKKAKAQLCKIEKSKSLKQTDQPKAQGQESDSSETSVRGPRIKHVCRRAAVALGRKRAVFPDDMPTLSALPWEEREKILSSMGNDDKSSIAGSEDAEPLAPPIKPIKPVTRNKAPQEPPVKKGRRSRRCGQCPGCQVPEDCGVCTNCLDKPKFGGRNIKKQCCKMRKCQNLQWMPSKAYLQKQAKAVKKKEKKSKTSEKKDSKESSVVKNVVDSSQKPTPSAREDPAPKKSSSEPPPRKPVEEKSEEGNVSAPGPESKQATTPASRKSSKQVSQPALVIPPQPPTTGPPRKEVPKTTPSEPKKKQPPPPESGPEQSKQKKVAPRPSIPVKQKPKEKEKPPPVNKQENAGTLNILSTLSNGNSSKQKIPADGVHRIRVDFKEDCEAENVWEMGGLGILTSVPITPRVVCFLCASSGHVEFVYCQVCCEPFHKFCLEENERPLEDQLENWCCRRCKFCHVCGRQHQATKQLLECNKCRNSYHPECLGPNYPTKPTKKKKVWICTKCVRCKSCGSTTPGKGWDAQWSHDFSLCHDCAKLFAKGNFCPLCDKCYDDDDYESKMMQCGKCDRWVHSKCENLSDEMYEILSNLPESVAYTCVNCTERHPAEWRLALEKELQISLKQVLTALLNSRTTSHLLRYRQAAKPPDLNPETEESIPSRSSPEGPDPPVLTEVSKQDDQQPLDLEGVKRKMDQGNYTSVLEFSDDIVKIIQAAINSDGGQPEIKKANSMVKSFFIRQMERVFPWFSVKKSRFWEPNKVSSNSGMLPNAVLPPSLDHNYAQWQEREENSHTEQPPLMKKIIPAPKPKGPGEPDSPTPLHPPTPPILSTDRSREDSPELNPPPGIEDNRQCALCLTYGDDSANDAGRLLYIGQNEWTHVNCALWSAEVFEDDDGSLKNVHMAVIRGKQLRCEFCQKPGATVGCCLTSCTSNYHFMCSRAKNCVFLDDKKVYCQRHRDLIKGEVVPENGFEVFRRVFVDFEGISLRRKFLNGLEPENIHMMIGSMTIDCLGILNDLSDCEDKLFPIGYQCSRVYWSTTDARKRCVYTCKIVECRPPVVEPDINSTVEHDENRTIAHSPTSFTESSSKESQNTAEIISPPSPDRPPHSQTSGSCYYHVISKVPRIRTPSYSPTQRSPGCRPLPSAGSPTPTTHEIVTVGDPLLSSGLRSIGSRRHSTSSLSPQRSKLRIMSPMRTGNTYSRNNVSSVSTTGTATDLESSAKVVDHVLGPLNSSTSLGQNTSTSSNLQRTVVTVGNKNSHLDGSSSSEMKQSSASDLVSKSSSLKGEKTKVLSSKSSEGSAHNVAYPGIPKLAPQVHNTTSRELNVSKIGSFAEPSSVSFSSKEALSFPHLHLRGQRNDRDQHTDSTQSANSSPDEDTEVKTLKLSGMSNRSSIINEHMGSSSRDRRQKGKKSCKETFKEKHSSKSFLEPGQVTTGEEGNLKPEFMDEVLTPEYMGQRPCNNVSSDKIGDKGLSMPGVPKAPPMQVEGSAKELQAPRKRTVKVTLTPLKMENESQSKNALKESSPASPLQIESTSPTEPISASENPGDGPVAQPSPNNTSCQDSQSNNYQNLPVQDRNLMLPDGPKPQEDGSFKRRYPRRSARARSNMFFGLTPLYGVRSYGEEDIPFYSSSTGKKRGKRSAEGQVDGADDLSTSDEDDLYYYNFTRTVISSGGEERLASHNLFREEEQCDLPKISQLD
T2 sequence (Q03164 2719-3969 limits assumed): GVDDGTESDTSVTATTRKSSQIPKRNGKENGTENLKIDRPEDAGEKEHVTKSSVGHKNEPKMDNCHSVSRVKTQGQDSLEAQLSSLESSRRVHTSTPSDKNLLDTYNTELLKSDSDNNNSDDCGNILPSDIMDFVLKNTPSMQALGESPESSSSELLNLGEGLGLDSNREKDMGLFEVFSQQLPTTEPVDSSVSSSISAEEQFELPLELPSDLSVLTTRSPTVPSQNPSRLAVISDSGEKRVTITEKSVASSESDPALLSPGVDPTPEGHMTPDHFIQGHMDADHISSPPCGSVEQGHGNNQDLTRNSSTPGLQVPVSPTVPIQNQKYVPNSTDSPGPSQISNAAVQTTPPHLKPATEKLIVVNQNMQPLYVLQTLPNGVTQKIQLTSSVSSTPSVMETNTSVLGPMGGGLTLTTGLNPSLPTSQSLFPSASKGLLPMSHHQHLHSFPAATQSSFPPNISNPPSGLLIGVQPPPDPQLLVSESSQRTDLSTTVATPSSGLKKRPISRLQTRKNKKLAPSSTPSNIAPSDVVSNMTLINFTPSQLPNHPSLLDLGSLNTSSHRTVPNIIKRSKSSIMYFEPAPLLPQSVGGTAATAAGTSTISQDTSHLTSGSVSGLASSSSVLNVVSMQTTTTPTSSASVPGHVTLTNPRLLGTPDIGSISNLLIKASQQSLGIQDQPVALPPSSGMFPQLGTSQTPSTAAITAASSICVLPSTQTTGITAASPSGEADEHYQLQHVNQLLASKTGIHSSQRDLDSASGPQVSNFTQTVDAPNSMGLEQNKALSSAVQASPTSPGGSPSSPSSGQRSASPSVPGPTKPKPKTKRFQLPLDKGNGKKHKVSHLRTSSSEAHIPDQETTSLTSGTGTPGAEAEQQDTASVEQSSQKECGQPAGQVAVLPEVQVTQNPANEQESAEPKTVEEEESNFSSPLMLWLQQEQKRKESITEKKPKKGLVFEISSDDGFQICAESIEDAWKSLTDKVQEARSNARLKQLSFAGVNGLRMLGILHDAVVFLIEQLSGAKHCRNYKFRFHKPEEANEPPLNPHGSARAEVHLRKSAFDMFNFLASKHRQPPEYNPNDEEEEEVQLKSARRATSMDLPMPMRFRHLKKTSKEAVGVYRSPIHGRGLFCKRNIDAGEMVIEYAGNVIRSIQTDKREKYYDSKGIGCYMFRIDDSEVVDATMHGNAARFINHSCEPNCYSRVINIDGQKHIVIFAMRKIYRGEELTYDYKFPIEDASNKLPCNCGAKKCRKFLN
Assay [7] has as its target T2, Histone-lysine N-methyltransferase 2A. The assay is described as §1. This is another data set of the same source.
Assay [8] has as its target T3, Caspase-7 (Homo sapiens, UniProt P55210).
T3 sequence (P55210 whole entry): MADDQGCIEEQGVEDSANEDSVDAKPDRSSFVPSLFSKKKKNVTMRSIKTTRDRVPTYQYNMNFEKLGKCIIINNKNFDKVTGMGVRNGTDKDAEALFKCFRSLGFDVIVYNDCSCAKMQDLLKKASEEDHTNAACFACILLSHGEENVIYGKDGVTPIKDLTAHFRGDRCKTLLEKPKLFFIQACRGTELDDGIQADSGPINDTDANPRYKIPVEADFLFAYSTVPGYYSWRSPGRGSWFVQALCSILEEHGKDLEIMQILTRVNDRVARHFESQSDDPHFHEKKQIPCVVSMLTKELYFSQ
The assay can be described thus: Selectivity interaction (Eurofins (enzymatic assay)) EUB0002202a CASP7.

Assay [9] addresses Caspase-8 (Homo sapiens, UniProt Q14790). The assay can be described thus: Selectivity interaction (Eurofins (enzymatic assay)) EUB0002202a CASP8.
In assay [10] the target is T4, Caspase-9 (Homo sapiens, UniProt P55211).
T4 sequence (P55211 whole entry): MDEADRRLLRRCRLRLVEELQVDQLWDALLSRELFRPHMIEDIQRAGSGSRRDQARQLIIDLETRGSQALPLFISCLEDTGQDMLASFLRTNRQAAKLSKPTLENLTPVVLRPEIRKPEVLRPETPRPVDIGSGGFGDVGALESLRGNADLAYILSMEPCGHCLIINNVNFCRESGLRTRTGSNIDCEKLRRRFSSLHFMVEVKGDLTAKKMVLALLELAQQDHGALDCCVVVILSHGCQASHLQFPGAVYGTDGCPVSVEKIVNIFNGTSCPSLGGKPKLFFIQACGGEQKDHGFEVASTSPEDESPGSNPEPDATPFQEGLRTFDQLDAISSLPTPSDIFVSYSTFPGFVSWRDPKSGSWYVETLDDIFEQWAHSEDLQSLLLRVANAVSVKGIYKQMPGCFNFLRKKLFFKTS
The assay can be described thus: Selectivity interaction (Eurofins (enzymatic assay)) EUB0002202a CASP9.

The target in assay [11] is T5, Caspase-10 (Homo sapiens, UniProt Q92851).
T5 sequence (Q92851 whole entry): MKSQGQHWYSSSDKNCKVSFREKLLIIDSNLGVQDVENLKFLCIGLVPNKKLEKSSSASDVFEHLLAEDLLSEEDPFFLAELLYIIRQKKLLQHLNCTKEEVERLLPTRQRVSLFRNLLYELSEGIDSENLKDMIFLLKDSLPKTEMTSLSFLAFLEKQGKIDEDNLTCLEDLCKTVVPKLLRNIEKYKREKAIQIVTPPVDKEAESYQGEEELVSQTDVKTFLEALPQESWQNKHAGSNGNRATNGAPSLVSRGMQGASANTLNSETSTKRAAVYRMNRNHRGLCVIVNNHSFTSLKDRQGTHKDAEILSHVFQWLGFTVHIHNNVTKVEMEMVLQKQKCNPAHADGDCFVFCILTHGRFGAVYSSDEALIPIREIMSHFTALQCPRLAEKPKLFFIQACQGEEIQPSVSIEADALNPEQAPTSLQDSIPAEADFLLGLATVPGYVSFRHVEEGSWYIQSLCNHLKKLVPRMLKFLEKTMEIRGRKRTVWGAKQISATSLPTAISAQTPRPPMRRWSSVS
The assay can be described thus: (§2) Selectivity interaction (Enzymatic assay) EUB0002198aAD CASP10.

Assay [12] concerns the target T5, Caspase-10. The description is as §2. The source holds these as a separate data set.
Assay [13] addresses Caspase-4 (Homo sapiens, UniProt P49662). As to the kind of experiment: Selectivity interaction (Enzymatic assay) EUB0002198aAD CASP4.
Assay [14] addresses T6, Caspase-5 (Homo sapiens, UniProt P51878).
T6 sequence (P51878 whole entry): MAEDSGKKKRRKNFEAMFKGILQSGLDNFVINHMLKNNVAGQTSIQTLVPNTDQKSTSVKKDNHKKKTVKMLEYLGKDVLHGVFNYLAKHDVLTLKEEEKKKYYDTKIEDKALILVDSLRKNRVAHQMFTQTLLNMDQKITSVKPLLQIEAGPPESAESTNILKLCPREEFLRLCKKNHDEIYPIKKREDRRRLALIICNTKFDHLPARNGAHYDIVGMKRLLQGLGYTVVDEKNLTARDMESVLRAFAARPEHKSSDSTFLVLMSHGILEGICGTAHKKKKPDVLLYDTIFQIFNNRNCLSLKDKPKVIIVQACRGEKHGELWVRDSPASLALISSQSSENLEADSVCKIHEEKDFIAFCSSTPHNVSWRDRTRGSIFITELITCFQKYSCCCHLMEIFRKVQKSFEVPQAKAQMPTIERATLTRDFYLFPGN
The assay can be described thus: Selectivity interaction (Enzymatic assay) EUB0002198aAD CASP5.

Assay [15] has as its target T4, Caspase-9. As to the kind of experiment: Selectivity interaction (Enzymatic assay) EUB0002198aAD CASP9.
Assay [16] deals with T5, Caspase-10. The assay is described as §2. The source holds these as a separate data set.
Assay [17] has as its target Caspase-14 (Homo sapiens, UniProt P31944). The assay can be described thus: Selectivity interaction (Enzymatic assay) EUB0002198aAD CASP14.
Assay [18] concerns the target T4, Caspase-9. As to the kind of experiment: Selectivity interaction (Enzymatic assay) EUB0002177aAD CASP9.
The target in assay [19] is T6, Caspase-5. The assay can be described thus: (§3) Selectivity interaction (Enzymatic assay) EUB0002176a CASP5.
Assay [20] deals with T6, Caspase-5. The description is as §3. This is another data set of the same source.

Structures are written as SMILES. Where a SMILES comes first, the peptide text is derived from it. [ ]: non-standard residue; d: D form. The star is where a group is joined. Lys(Me,2-norbornyl) = CN(CCCC[C@H](N)C(=O)O)C1CC2CCC1C2; Benzoyl(4-tBu) = CC(C)(C)c1ccc(C(=O)*)cc1; Cbz = O=C(OCc1ccccc1)*; CH2Cl = ClC*; CH2F = FC*

A word on the Kd: it is the constant that tells how readily two partners part at equilibrium. Broadly, the IC50 is the midpoint of a concentration-inhibition curve. A low value points to greater potency in that assay.

Caspase-14, sequence (P31944 6-146 limits assumed): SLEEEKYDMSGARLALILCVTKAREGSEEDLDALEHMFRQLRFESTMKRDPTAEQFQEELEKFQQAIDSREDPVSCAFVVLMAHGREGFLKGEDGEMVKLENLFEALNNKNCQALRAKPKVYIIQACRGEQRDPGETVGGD
Caspase-14, sequence (P31944 153-242 limits assumed): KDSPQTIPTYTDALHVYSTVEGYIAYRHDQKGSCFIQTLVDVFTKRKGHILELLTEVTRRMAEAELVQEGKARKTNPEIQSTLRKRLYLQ

On to `COC(=O)[C@H](CO)NC(=O)[C@H](CCCCN(C)C1CC2CCC1C2)NC(=O)[C@H](CC(C)C)NC(=O)[C@H](C)NC(=O)[C@H](Cc1ccccc1)NC(=O)c1ccc(C(C)(C)C)cc1` (stereo not given in full) ({Benzoyl(4-tBu)}-FAL[Lys(Me,2-norbornyl)]S-OMe), for which the Kd was found to be 1750 nM in assay [1]; 26.7 nM in [2]; 543 nM in assay [3]; 458 nM in [4]; 415 nM in [5].

As for `Cc1nc(F)ccc1-c1cc(Cn2ccn(C)c2=N)cc(C(=O)NCc2ccc(Cl)c(Cl)c2)c1`, the IC50 in assay [6] and in assay [7] was 19.9 nM in each case.

Turning to `COC(=O)CC[C@H](NC(=O)[C@H](Cc1c[nH]c2ccccc12)NC(=O)OCc1ccccc1)C(=O)N[C@@H](Cc1cnc[nH]1)C(=O)N[C@@H](CC(=O)OC)C(=O)CF` (Cbz-WE(OMe)HD(OMe)-CH2F), the IC50 was found to be 580 nM in assay [8], 220 nM in assay [9] and 240 nM in assay [10].

Turning to `CC(=O)N[C@@H](CC(C)C)C(=O)N[C@@H](CCC(=O)O)C(=O)N[C@@H](Cc1cnc[nH]1)C(=O)N[C@H](C=O)CC(=O)O` (Ac-LEHD-aldehyde), the 50% inhibitory concentration (IC50) in assay [11] stood at 240 nM; in assay [12], 240 nM; in assay [13], 81.7 nM; in [14], 21.3 nM; in assay [15] it was 49.2 nM; in [16], 40.4 nM. Further, in assay [17], half-maximal inhibition (IC50) was put at 134 nM.

In assay [18], `CC[C@H](C)[C@H](NC(C)=O)C(=O)N[C@@H](CCC(=O)O)C(=O)N[C@H](C(=O)N[C@H](C=O)CC(=O)O)[C@@H](C)O` (Ac-IETD-aldehyde) yielded a half-inhibitory concentration (IC50) of 35 nM.

Take `CC(=O)N[C@@H](Cc1ccccc1)C(=O)N[C@@H](CC(C)C)C(=O)N[C@H](C(=O)N[C@@H](CC(=O)O)C(=O)CCl)[C@@H](C)O` (Ac-FLTD-CH2Cl): the IC50 in [19] and in [20] was 329 nM each time.

These data come from ChEMBL document CHEMBL5715260, “Selectivity Literature for EUbOPEN Chemogenomic Library” (2024).
